The source of these data is patent publication US20240025919A1, “AZA-TETRACYCLIC OXAZEPINE COMPOUNDS AND USES THEREOF” (Genentech, Inc., priority 2022, published 2024).

Each structure is given as a SMILES string. Where “and” joins values, the source holds several entries; their conditions need not be identical. Equal entries are not always repeated. Where two headings read alike, the source gives them in different places.

One assay deals with KRAS G12D (Homo sapiens (Human), UniProt P01116, G12D). The experiment in a line: KRAS G12D LoEnz Biochemical Assay, BODIPY-GDP Exchange TR-FRET (SOS1-mediated nucleotide exchange). Particulars: read-out: KRas (G12D) GDP HTRF IC50. A general note: Time-resolved FRET reads energy transfer from a long-lived donor to a nearby acceptor.
KRAS G12D, sequence (P01116-2 other isoform, or with tags, fused parts or gaps G12D): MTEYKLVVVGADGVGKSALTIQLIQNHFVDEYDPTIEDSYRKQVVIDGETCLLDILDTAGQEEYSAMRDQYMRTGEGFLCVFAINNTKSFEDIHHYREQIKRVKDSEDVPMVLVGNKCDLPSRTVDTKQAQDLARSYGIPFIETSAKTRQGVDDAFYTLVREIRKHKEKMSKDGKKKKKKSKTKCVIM
The target in assay [1] is T1, KRAS WT (Homo sapiens (Human), UniProt P01116). Kind of assay: KRAS WT Biochemical Assay, BODIPY-GDP Exchange TR-FRET (Example 502; 0.06 nM KRAS WT, 15 nM GDP, 300 nM SOS1, 120-minute incubation). Particulars: read-out: KRas HTRF IC50. An outline of the steps: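 Biotin-tagged recombinant KRAS WT (0.06 nM) preloaded with 15 nM GDP and Tb-streptavidin, 10 min RT, then exchange started with 300 nM SOS1 plus 300 nM BODIPY-GDP in HEPES pH 7.5 buffer with MgCl2. TR-FRET 520/490 ratio read after 120 min; normalized to DMSO and full-inhibition control; IC50 from 4-parameter fit.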
T1 sequence (P01116-2 other isoform, or with tags, fused parts or gaps): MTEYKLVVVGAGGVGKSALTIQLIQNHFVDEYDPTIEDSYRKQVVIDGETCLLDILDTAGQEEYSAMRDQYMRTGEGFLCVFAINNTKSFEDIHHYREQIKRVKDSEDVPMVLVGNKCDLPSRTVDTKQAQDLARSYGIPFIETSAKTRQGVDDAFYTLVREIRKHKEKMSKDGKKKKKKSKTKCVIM

The test system of assay [2] is PC-9 (KRAS wild type human lung adenocarcinoma cell line). The experiment in a line: KRAS 3D-Cell Proliferation Assay, PC-9 (CellTiter-Glo 3D, 7 days). It counts as cell-based. The note with it: PC-9 3D culture, read-out: Prolif PC9 3D ATP IC50. As for the experimental part:
Example 503: KRAS 3D-Cell Proliferation Assays. Cellular potencies of compounds are assessed by evaluating inhibition of proliferation in 3D cultures of homozygous mutant KRAS G12D human pancreatic cell lines (AsPC-1 and HPAC) as compared to a KRAS wild type human lung adenocarcinoma cell line (PC-9 and/or H1975). Cells are seeded into 384-well black round-bottom, ultra-low attachment assay plates in 50 uL cell growth medium (RPMI-1640 with 10% fetal bovine serum and 2 mM L-glutamine). After overnight incubation at 37° C. and 5% CO2, compounds solubilized in DMSO are added as dilution series to the wells in a total volume of 150 nL (0.3% DMSO final). The cells are incubated for 7 days at 37° C. and 5% CO2. Cell proliferation is quantitated by addition of 40 uL/well of CellTiter-GloO 3D (Promega), and the well contents are mixed 20× at high speed using liquid handling automation workstation (Bravo with 384-well head) and centrifuged at 1500 rpm for 2 minutes to eliminate bubbles. This reagent in combination with mechanical disruption releases the cellular ATP to promote activity in a luciferase-based enzyme/substrate chemiluminescent detection system. After a 30-minute incubation under ambient conditions with shaking and an additional 10 minutes without shaking, the luminescence is read on a plate reader (e.g. EnVision [PerkinElmer]). The results are normalized to percent inhibition based on the following control samples: DMSO (0% inhibition) and 1 uM staurosporine (100% inhibition). The normalized luminescence results are plotted against compound concentration, and the data are fit to a 4-parameter Hill equation to determine the IC50 values.

For assay [3], the target named is T1, KRAS WT. Kind of assay: KRAS WT Biochemical Assay, BODIPY-GDP Exchange TR-FRET (Example 501; 3 nM KRAS WT, 3 nM SOS1, 60-minute incubation). Particulars: read-out: KRas(wt) GDP HTRF IC50. An outline of the steps:
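SOS1-mediated exchange assay: 3 nM biotin-KRAS WT with terbium-streptavidin, started with 3 nM SOS1 and 300 nM BODIPY-GDP, HEPES pH 7.5 with MgCl2. TR-FRET (520/490 nm) read after 60 min; normalized to DMSO and full-inhibition control, IC50 from 4-parameter Hill fit.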

In general, IC50 refers to the point on the concentration scale where inhibition reaches its midpoint. For the compound `C[C@@H]1Oc2nc(-c3nc(N)c(F)cc3C(F)(F)F)c(F)c3nc(OC[C@@]45CCCN4C[C@H](F)C5)nc(c23)N2C[C@H]3CC[C@H](N3)[C@@H]12` [Compound 84, 3-Fluoro-6-((5S,5aS,6S,9R)-1-fluoro-12-(((2R,7aS)-2-fluorotetrahydro-1H-pyrrolizin-7a(5H)-yl)methoxy)-5-methyl-5a,6,7,8,9,10-hexahydro-5H-4-oxa-3,10a,11,13,14-pentaaza-6,9-methanonaphtho[1,8-ab]heptalen-2-yl)-5-(trifluoromethyl)pyridin-2-amine], the IC50 at KRAS G12D was 24.9 nM; on KRAS WT [1], 4310 nM; in assay [2] (Homo sapiens, PC-9, 168 h) it was 20 µM.
Turning to `C[C@@H]1Oc2nc(-c3nc(N)ccc3C(F)(F)F)c(F)c3nc(OC[C@@]45CCCN4C[C@H](F)C5)nc(c23)N2C[C@H]3CC[C@H](N3)[C@@H]12` [Compound 85, 6-((5S,5aS,6S,9R)-1-fluoro-12-(((2R,7aS)-2-fluorotetrahydro-1H-pyrrolizin-7a(5H)-yl)methoxy)-5-methyl-5a,6,7,8,9,10-hexahydro-5H-4-oxa-3,10a-11,13,14-pentaaza-6,9-methanonaphtho[1,8-ab]heptalen-2-yl)-5-(trifluoromethyl)pyridin-2-amine], the IC50 was determined as 3.28 nM at KRAS G12D; 678 nM on KRAS WT [1]; 20 µM in assay [2] (Homo sapiens, PC-9, 168 h).
For `C#Cc1c(F)ccc2cc(O)cc(-c3nc4c5c(nc(OC[C@@]67CCCN6C[C@H](F)C7)nc5c3F)N3C[C@H]5CC[C@H](N5)[C@H]3CO4)c12` [Compound 81, 5-Ethynyl-6-fluoro-4-((5aS,6S,9R)-1-fluoro-12-(((2R,7aS)-2-fluorotetrahydro-1H-pyrrolizin-7a(5H)-yl)methoxy)-5a,6,7,8,9,10-hexahydro-5H-4-oxa-3,10a,11,13,14-pentaaza-6,9-methanonaphtho[1,8-ab]heptalen-2-yl)naphthalen-2-ol] the same measures were 0.085 nM, 0.448 nM and 20 µM.
Consider `C[C@@H]1Oc2nc(-c3nc(N)c(F)cc3C(F)(F)F)c(F)c3nc(OC[C@]45CCN4CC(F)(F)C5)nc(c23)N2C[C@H]3CC[C@H](N3)[C@@H]12` [Compound 87, 6-((5S,5aS,6S,9R)-12-(((R)-3,3-Difluoro-1-azabicyclo[3.2.0]heptan-5-yl)methoxy)-1-fluoro-5-methyl-5a,6,7,8,9,10-hexahydro-5H-4-oxa-3,10a,11,13,14-pentaaza-6,9-methanonaphtho[1,8-ab]heptalen-2-yl)-3-fluoro-5-(trifluoromethyl)pyridin-2-amine], for which the IC50 on KRAS G12D is 68.9 nM; on KRAS WT [1] it was 16100 nM; in assay [2] (Homo sapiens, PC-9, 168 h), 20 µM.
In the case of `Cc1cc(N)cc(-c2nc3c4c(nc(OC[C@@]56CCCN5C[C@H](F)C6)nc4c2F)N2C[C@H]4CC[C@H](N4)[C@H]2[C@H](C)O3)c1C(F)(F)F` [Compound 16, 3-((5S,5aS,6S,9R)-1-fluoro-12-(((2R,7aS)-2-fluorotetrahydro-1H-pyrrolizin-7a(5H)-yl)methoxy)-5-methyl-5a,6,7,8,9,10-hexahydro-5H-4-oxa-3,10a,11,13,14-pentaaza-6,9-methanonaphtho[1,8-ab]heptalen-2-yl)-5-methyl-4-(trifluoromethyl)aniline], the IC50 at KRAS G12D came to 0.138 nM; at KRAS WT [3] it was 0.668 nM; at KRAS WT [1], 0.484 nM; in assay [2] (Homo sapiens, PC-9, 168 h), 20 µM.
Consider `Cc1cc(N)c(F)c(-c2nc3c4c(nc(OC[C@@]56CCN5CC(F)(F)C6)nc4c2F)N2C[C@H]4CC[C@H](N4)[C@H]2[C@H](C)O3)c1C(F)(F)F` [Compound 92, 3-((5S,5aS,6S,9R)-12-(((S)-3,3-Difluoro-1-azabicyclo[3.2.0]heptan-5-yl)methoxy)-1-fluoro-5-methyl-5a,6,7,8,9,10-hexahydro-5H-4-oxa-3,10a,11,13,14-pentaaza-6,9-methanonaphtho[1,8-ab]heptalen-2-yl)-2-fluoro-5-methyl-4-(trifluoromethyl)aniline], for which the half-inhibitory concentration (IC50) is 0.76 nM and 1.01 nM at KRAS G12D; 34.9 nM and 148 nM at KRAS WT [1]; 8.13 µM in assay [2].
As to `C[C@@H]1Oc2nc(-c3cc(N)c(F)cc3C(F)(F)F)c(F)c3nc(OC[C@]45CCN4CC(F)(F)C5)nc(c23)N2C[C@H]3CC[C@H](N3)[C@@H]12` [Compound 71, 5-((5S,5aS,6S,9R)-12-(((R)-3,3-Difluoro-1-azabicyclo[3.2.0]heptan-5-yl)methoxy)-1-fluoro-5-methyl-5a,6,7,8,9,10-hexahydro-5H-4-oxa-3,10a,11,13,14-pentaaza-6,9-methanonaphtho[1,8-ab]heptalen-2-yl)-2-fluoro-4-(trifluoromethyl)aniline], the IC50 came out at 3.51 nM at KRAS G12D; 313 nM at KRAS WT [1]; 20 µM in assay [2] (Homo sapiens, PC-9, 168 h).
With `C#Cc1cccc2cncc(-c3nc4c5c(nc(OC[C@@]67CCCN6C[C@H](F)C7)nc5c3F)N3C[C@H]5CC[C@H](N5)[C@H]3[C@H](C)O4)c12` [Compound 39, (5S,5aS,6S,9R)-2-(5-Ethynylisoquinolin-4-yl)-1-fluoro-12-(((2R,7aS)-2-fluorotetrahydro-1H-pyrrolizin-7a(5H)-yl)methoxy)-5-methyl-5a,6,7,8,9,10-hexahydro-5H-4-oxa-3,10a,11,13,14-pentaaza-6,9-methanonaphtho[1,8-ab]heptalene], the IC50 on KRAS G12D is 1.78 nM; at KRAS WT [3], 76.1 nM; in assay [2] (Homo sapiens, PC-9, 168 h), 20 µM.
Turning to `Cc1cc(N)nc(-c2nc3c4c(nc(OC[C@@]56CCCN5C[C@H](F)C6)nc4c2F)N2C[C@H]4CC[C@H](N4)[C@H]2[C@H](C)O3)c1C(F)(F)F` [Compound 43, 6-((5S,5aS,6S,9R)-1-Fluoro-12-(((2R,7aS)-2-fluorotetrahydro-1H-pyrrolizin-7a(5H)-yl)methoxy)-5-methyl-5a,6,7,8,9,10-hexahydro-5H-4-oxa-3,10a,11,13,14-pentaaza-6,9-methanonaphtho[1,8-ab]heptalen-2-yl)-4-methyl-5-(trifluoromethyl)pyridin-2-amine], the half-inhibitory concentration (IC50) at KRAS G12D was determined as 0.598 nM; at KRAS WT [3], 16.6 nM; in assay [2] (Homo sapiens, PC-9, 168 h), 20 µM.
Turning to `C[C@@H]1Oc2nc(-c3cnccc3C(F)(F)F)c(F)c3nc(OC[C@]45CCN4CC(F)(F)C5)nc(c23)N2C[C@H]3CC[C@H](N3)[C@@H]12` [Compound 78, (5S,5aS,6S,9R)-12-(((R)-3,3-Difluoro-1-azabicyclo[3.2.0]heptan-5-yl)methoxy)-1-fluoro-5-methyl-2-(4-(trifluoromethyl)pyridin-3-yl)-5a,6,7,8,9,10-hexahydro-5H-4-oxa-3,10a,11,13,14-pentaaza-6,9-methanonaphtho[1,8-ab]heptalene], the half-inhibitory concentration (IC50) at KRAS G12D came out at 867 nM; on KRAS WT [1], 200000 nM; in assay [2] (Homo sapiens, PC-9, 168 h), 20 µM.
Turning to `Cc1cc(N)nc(-c2nc3c4c(nc(OC[C@@]56CCCN5C[C@H](F)C6)nc4c2F)N2C[C@H]4CC[C@H](N4)[C@H]2CO3)c1C(F)(F)F` [Compound 44, 6-((5aS,6S,9R)-1-fluoro-12-(((2R,7aS)-2-fluorotetrahydro-1H-pyrrolizin-7a(5H)-yl)methoxy)-5a,6,7,8,9,10-hexahydro-5H-4-oxa-3,10a,11,13,14-pentaaza-6,9-methanonaphtho[1,8-ab]heptalen-2-yl)-4-methyl-5-(trifluoromethyl)pyridin-2-amine], the IC50 at KRAS G12D was 0.68 nM; at KRAS WT [3] it was 59 nM; in assay [2] (Homo sapiens, PC-9, 168 h), 20 µM.
Consider `C#Cc1c(F)ccc2cccc(-c3nc4c5c(ncnc5c3F)N3C[C@H]5CC[C@H](N5)[C@H]3[C@H](C)O4)c12` [Compound 56, (5S,5aS,6S,9R)-2-(8-ethynyl-7-fluoronaphthalen-1-yl)-1-fluoro-5-methyl-5a,6,7,8,9,10-hexahydro-5H-4-oxa-3,10a,11,13,14-pentaaza-6,9-methanonaphtho[1,8-ab]heptalene], for which the IC50 at KRAS G12D turned out to be 942 nM; on KRAS WT [3] it was 46500 nM; in assay [2] (Homo sapiens, PC-9, 168 h), 20 µM.
